This passage reports IC50 results from US8299056B2 (Signal Pharmaceuticals, LLC, priority 2008, dated 2012).

The target of this assay is T1, Syk (Homo sapiens, UniProt P43405).
T1 construct: purchased Carna Biosciences
The experiment in a line: Syk HTRF assay. The assay is classed as biochemical. Put shortly: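 Read-out is the 665 nm/615 nm time-resolved fluorescence ratio after EDTA stop and Eu-anti-phosphotyrosine plus streptavidin-DyLight 647 detection. Reaction ran 1 h at room temperature with start mix of 87.5 μM ATP and 80 nM substrate peptide in pH 7.6 HEPES/MgCl2 buffer.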

Where [1] appears, read: activity levels A-D, read-out: Activity Level (IC50 in the Syk HTRF assay).
Setting [2] is: read-out: Activity Level (Syk HTRF assay IC50).
The mark [3] stands for this setting: IC50 activity level, read-out: Activity Level.

Read-outs that look alike come from different tables or passages of the source.

With `O[C@@H]1CCCC1Nc1cccc2nc(Nc3ccc(C(F)(F)F)cc3)nn12` (stereo in doubt) [Example 377, (1R,2R)-2-(2-(4-(trifluoromethyl)phenylamino)-[1,2,4]triazolo[1,5-a]pyridin-5-ylamino)cyclopentanol], the IC50 under setting [1] lay within 0.005 to 250 nM.
Take `CNC(=O)c1ccc(Nc2nc3cccc(CC4CCC(N)CC4)n3n2)cc1` (stereo not drawn) [Example 262, 4-(5-((4-aminocyclohexyl)methyl)-[1,2,4]triazolo[1,5-a]pyridin-2-ylamino)-N-methylbenzamide]: under setting [1], the IC50 fell in the range of 0.005 to 250 nM.
On the same count and under the same terms, the figure for `O=C1NCC[C@H]1NCc1cccc2nc(Nc3ccc(C(F)(F)F)cc3)nn12` [Example 205, (R)-3-((2-(4-(trifluoromethyl)phenylamino)-[1,2,4]triazolo[1,5-a]pyridin-5-yl)methylamino)pyrrolidin-2-one] is 1000 to 10000 nM.
Turning to `COCc1n[nH]c2cc(Nc3nc4cccc(CC5CCOCC5)n4n3)ccc12` [compound 104, N-(3-(methoxymethyl)-1H-indazol-6-yl)-5-((tetrahydro-2H-pyran-4-yl)methyl)-[1,2,4]triazolo[1,5-a]pyridin-2-amine], the IC50 under setting [2] lay within 0.005 to 250 nM.
Turning to `CC(C)(CO)Nc1cccc2nc(Nc3ccc(C(F)(F)F)cc3)nn12` [Example 358, 2-methyl-2-(2-(4-(trifluoromethyl)phenylamino)-[1,2,4]triazolo[1,5-a]pyridin-5-ylamino)propan-1-ol], the IC50 under setting [1] lay within 1000 to 10000 nM.
For `c1ccc(Nc2nc3cccc(CC4CCNCC4)n3n2)cc1` [Example 482, N-phenyl-5-(piperidin-4-ylmethyl)-[1,2,4]triazolo[1,5-a]pyridin-2-amine], under setting [3], the IC50 lay in the range of 0.005 to 250 nM.
With `Cc1ccc(Nc2nc3cccc(-c4ccc5nc(CO)[nH]c5c4)n3n2)cn1` [Example 285, (6-(2-(6-methylpyridin-3-ylamino)-[1,2,4]triazolo[1,5-a]pyridin-5-yl)-1H-benzo[d]imidazol-2-yl)methanol], the IC50 under setting [1] lay within 0.005 to 250 nM.
As to `c1cc(CC2CCOCC2)n2nc(Nc3ccc(-c4nc[nH]n4)cc3)nc2c1` [Example 557, N-(4-(1H-1,2,4-triazolo-3-yl)phenyl)-5-((tetrahydro-2H-pyran-4-yl)methyl)-[1,2,4]triazolo[1,5-a]pyridin-2-amine], the IC50 under setting [3] was 500 to 1000 nM.
On to `c1ccc(-c2cccc3nc(Nc4ccc5nn[nH]c5c4)nn23)cc1` [compound 49, N-(5-phenyl-[1,2,4]triazolo[1,5-a]pyridin-2-yl)-1H-benzo[d][1,2,3]triazol-6-amine], for which, under setting [2], the IC50 was 0.005 to 250 nM.
On to `CNC(=O)c1ccc(Nc2nc3cccc(-c4cccc(O)c4)n3n2)cc1` [compound 36, 4-(5-(3-hydroxyphenyl)-[1,2,4]triazolo[1,5-a]pyridin-2-ylamino)-N-methylbenzamide], for which the IC50 under setting [2] is 0.005 to 250 nM.
Consider `O[C@@H]1CCC[C@@H](Nc2cccc3nc(Nc4ccc(C(F)(F)F)cc4)nn23)C1` (single isomer, unassigned; enantiomer 1) [Example 225, trans-3-(2-(4-(trifluoromethyl)phenylamino)-[1,2,4]triazolo[1,5-a]pyridin-5-ylamino)cyclohexanol (enantiomer 1)], for which the IC50 under setting [1] lay within 0.005 to 250 nM.
For `c1ccc(-c2cccc3nc(Nc4ccc5c(c4)CNC5)nn23)cc1` [compound 53], the IC50 under setting [2] lay in the range of 0.005 to 250 nM.
In the case of `O=C1CCCN1c1ccc(Nc2nc3cccc(-c4ccccc4)n3n2)cc1` [compound 50], the IC50 under setting [2] is 0.005 to 250 nM.
On to `CN1Cc2cc(Nc3nc4cccc(N[C@H]5CC[C@@H](O)CC5)n4n3)ccc2C1=O` [Example 135, cis-5-(5-(4-hydroxycyclohexylamino)-[1,2,4]triazolo[1,5-a]pyridin-2-ylamino)-2-methylisoindolin-1-one], for which the IC50 under setting [2] fell in the range of 0.005 to 250 nM.
On to `CC1C(=O)NCCN1Cc1cccc2nc(Nc3ccc(C(F)(F)F)cc3)nn12` (stereo in doubt) [Example 275, (S)-3-methyl-4-((2-(4-(trifluoromethyl)phenylamino)-[1,2,4]triazolo[1,5-a]pyridin-5-yl)methyl)piperazin-2-one], for which the IC50 under setting [1] is 0.005 to 250 nM.
